From ChEMBL document CHEMBL4706683 (J Med Chem, 2021) come the findings set out here.

Activity calls are given as the source filed them. The calls are words filed in the database; no cut-off is given here.

The nature of series [1]: Half life in Balb/c mouse at 10 mg/kg, po administered as single dose measured upto 24 hrs by LC-MS/MS analysis. The series is classed as ADME, organism-based. As to conditions: in vivo.
The nature of series [2]: Selectivity index, ratio of IC50 for cytotoxicity against human HepG2 cells assessed to IC50 for antiplasmodial activity against synchronized ring stage Plasmodium falciparum 3D7 infected in human erythrocytes. The series is classed as toxicity, cell-based. The following applies: read-out: Ratio IC50.
Series [3] is described as follows: Apparent clearance during terminal phase in Balb/c mouse at 2 mg/kg, iv administered as single dose measured upto 24 hrs by LC-MS/MS analysis. The series is classed as ADME, organism-based. As to conditions: in vivo.
In series [4] the test system is Plasmodium falciparum. Nature of the series: Antiplasmodial activity against artemisinin-resistant ring stage Plasmodium falciparum 6320 infected in human erythrocytes assessed as reduction in parasite growth incubated for 72 hrs by Giemsa staining based light microscopic method. Type of series: functional, organism-based. The following applies: Plasmodium falciparum, 6320, Erythrocyte.

Series [5] in a line: Clearance in mouse liver microsomes incubated upto 45 mins in presence of NADPH by LC-MS/MS analysis. Type of series: ADME, Microsome. The following applies: read-out: CLH.
The test system of series [6] is Plasmodium falciparum. As to the kind of experiment: Antiplasmodial activity against synchronized ring stage Plasmodium falciparum 3D7 infected in human erythrocytes assessed as reduction in parasite growth incubated for 72 hrs by Giemsa staining based light microscopic method. The series is classed as functional, organism-based. As to conditions: 3D7, Erythrocyte.

Series [7] in a line: Half life in Balb/c mouse at 2 mg/kg, iv administered as single dose measured upto 24 hrs by LC-MS/MS analysis. The series is classed as ADME, organism-based. The following applies: in vivo.
The nature of series [8]: Selectivity index, ratio of IC50 for cytotoxicity against human HEK293T cells assessed to IC50 for antiplasmodial activity against synchronized ring stage Plasmodium falciparum 3D7 infected in human erythrocytes. The series is classed as toxicity, cell-based. The following applies: read-out: Ratio IC50.
Series [9] can be described thus: Toxicity in Balb/c mouse infected with blood stage Plasmodium yoelii assessed as recrudescence at 10 to 30 mg/kg, ip QD for 5 consecutive days and measured on day 20. The series is classed as organism-based. As to conditions: in vivo, 120 h, dose 10-30 mg/kg, time 5 day.
Series [10] addresses T1, Protein deacetylase HDAC6 (Homo sapiens, UniProt Q9UBN7).
T1 sequence (Q9UBN7 whole entry): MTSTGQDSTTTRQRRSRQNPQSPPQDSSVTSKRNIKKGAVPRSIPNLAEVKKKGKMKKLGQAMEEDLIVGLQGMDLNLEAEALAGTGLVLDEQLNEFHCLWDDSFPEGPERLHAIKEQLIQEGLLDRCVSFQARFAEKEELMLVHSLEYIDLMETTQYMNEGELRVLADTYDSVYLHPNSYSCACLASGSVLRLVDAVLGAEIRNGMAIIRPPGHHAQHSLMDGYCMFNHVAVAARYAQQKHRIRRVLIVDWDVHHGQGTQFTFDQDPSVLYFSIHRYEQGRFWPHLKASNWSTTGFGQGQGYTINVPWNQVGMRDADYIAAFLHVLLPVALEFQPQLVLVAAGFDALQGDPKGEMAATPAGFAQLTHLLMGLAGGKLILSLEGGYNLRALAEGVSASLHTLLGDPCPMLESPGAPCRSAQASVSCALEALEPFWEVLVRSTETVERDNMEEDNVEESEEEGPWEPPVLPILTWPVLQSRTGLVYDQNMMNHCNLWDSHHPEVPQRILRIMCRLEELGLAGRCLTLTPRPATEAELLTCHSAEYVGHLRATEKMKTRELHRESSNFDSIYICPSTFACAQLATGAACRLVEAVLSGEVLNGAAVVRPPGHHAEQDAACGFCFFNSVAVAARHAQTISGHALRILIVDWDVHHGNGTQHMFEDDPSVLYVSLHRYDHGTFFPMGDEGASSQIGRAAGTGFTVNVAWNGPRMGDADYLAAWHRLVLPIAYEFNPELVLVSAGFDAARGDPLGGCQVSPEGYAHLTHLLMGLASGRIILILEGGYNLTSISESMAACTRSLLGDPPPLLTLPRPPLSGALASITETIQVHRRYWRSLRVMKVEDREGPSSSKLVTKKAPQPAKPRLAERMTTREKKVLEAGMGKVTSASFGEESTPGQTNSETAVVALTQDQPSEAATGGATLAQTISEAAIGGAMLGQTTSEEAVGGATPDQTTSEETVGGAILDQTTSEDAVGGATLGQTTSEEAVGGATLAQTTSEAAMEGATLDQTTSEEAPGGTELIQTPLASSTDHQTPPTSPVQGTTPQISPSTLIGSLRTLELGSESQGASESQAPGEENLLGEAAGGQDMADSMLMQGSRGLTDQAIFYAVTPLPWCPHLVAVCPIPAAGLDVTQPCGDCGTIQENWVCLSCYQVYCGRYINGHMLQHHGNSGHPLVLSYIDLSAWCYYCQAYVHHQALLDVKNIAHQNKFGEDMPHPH
As to the kind of experiment: Inhibition of human HDAC6 using Ac-peptide as substrate preincubated for 15 mins followed by substrate and trypsin addition and further incubated for 60 mins.

A short description of series [11]: Apparent volume of distribution during terminal phase in Balb/c mouse at 5 mg/kg, ip administered as single dose measured upto 24 hrs by LC-MS/MS analysis. The series is classed as ADME, organism-based. As to conditions: in vivo, 5 mg/kg, 24 h.
Series [12] in a line: Apparent clearance during terminal phase in Balb/c mouse at 5 mg/kg, ip administered as single dose measured upto 24 hrs by LC-MS/MS analysis. The series is classed as ADME, organism-based. As to conditions: in vivo, 5 mg/kg, 24 h.
A short description of series [13]: Cmax in Balb/c mouse at 10 mg/kg, po administered as single dose measured upto 24 hrs by LC-MS/MS analysis. Type of series: ADME, organism-based. Also on record: route oral, dose 10 mg/kg, time <=24. As to conditions: in vivo.
Series [14] has as its system Plasmodium yoelii. As to the kind of experiment: Antiplasmodial activity against blood stage Plasmodium yoelii infected in Balb/c mouse assessed as reduction in parasitemia at 60 mg/kg, ip QD for 5 consecutive days and measured on day 30 by microscopic analysis. Type of series: functional, organism-based. The following applies: time 5.0 day.
Series [15] relates to Plasmodium falciparum. Nature of the series: Antiplasmodial activity against artemisinin-resistant Plasmodium falciparum 6320 assessed as reduction in parasite survival at 700 nM incubated for 6 hrs followed by compound washout thrice and further cultured in compound free medium for 66 hrs by RSA. The series is classed as functional, organism-based.
For series [16], the system named is Plasmodium falciparum. As to the kind of experiment: Antimalarial activity against synchronized schizont stage transgenic Plasmodium falciparum 3D7 with C-terminal 3xTY1-fused HDAC1 knockdown assessed as parasite growth inhibition pretreated with glucosamine followed by compound treatment and incubated for 4 hrs followed by compound washout for thrice and subsequent culturing for 68 hrs by SYBR Green 1 staining based analysis. Type of series: functional, organism-based.

Series [17] can be described thus: Tmax in Balb/c mouse at 5 mg/kg, ip administered as single dose measured upto 24 hrs by LC-MS/MS analysis. The following applies: in vivo. Type of series: ADME, organism-based.
Series [18] can be described thus: AUC (0 to infinity) in Balb/c mouse at 2 mg/kg, iv administered as single dose measured up to 24 hrs by LC-MS/MS analysis. Type of series: ADME, organism-based. Also on record: route intravenous, dose 2 mg/kg, time <=24. The following applies: in vivo.
Series [19] relates to Plasmodium falciparum. As to the kind of experiment: Antiplasmodial activity against Plasmodium falciparum GB4 infected in human erythrocytes assessed as reduction in parasite growth incubated for 72 hrs by Giemsa staining based light microscopic method. The series is classed as functional, organism-based. As to conditions: GB4, Erythrocyte.

On to `Cl.O=C(NO)c1cnc(N2CCC3(CCN(Cc4c[nH]c5ccccc45)C3)CC2)nc1`, for which the figures for the half-life in [1] and in series [7] were 104 min and 43.2 min, respectively. Also, the figures for the selectivity ratio in series [2] and in series [8] were 83 and 75, respectively. In addition, the CLz/F in [3] came out at 16.8 L/h/kg; in series [12], 34 L/h/kg. Also, the IC50 in series [4] was found to be 2.9 nM; in series [6], 3.19 nM; in [10], 32 nM; in series [16], 32.3 nM; in series [19], 3.9 nM. Further, the CLint scaled in series [5] turned out to be 121 mL/min/kg. Also, the Activity entry in [9] is “Toxic”. For the same compound, in series [11], the Vz/F was 60.4 L/kg. Moreover, the concentration in [13] peaked (Cmax) at 2.49 ng/mL. The result in [14] and in series [15] was Active. Also, the Tmax in series [17] was found to be 15 min. In series [18], this compound came in with a total exposure AUC(0-inf) of 119 ng·h/mL.

Broadly, the half-life is how long it takes for the measured level to halve. High values mean slow loss, low ones fast loss. The IC50 is the concentration that gives 50% inhibition. One may read the Cmax as the highest concentration seen after dosing. As usually defined, the Tmax is the time from dosing to the highest level. The AUC(0-inf) is total exposure, with the tail of the curve extrapolated. Higher therefore signals high exposure.
